The source of these data is ChEMBL document CHEMBL1129613, “Design, synthesis, and biological evaluation of ellipticine-estradiol conjugates” (J Med Chem, 1996).

The structures appear in SMILES notation.

Test [1] concerns the target DNA topoisomerase 2-alpha (Homo sapiens, UniProt P11388). The test can be described thus: Inhibitory activity against topoisomerase II determined in catenation inhibition assay.
The subject of test [2] is PC-3. Kind of test: Cytotoxic effect on growth inhibition of prostate cancer PC-3 cells. The class given is functional. As to conditions: Homo sapiens.
Test [3] deals with SN12C. Kind of test: Cytotoxic effect on growth inhibition of renal cancer SN12C cells. The class given is functional. As to conditions: Homo sapiens.
For test [4], the system named is Hs-578T. The test can be described thus: Cytotoxic effect on growth inhibition of breast cancer HS 578T cells. The class given is functional. To be noted: Homo sapiens.
For test [5], the system named is LOX IMVI. The test can be described thus: Cytotoxic effect on growth inhibition of melanoma LOX IMVI cells. The class given is functional. As to conditions: Homo sapiens.
Test [6] has as its system MCF7. Kind of test: Cytotoxic effect on growth inhibition of breast cancer MCF-7 cells. The class given is functional. To be noted: Homo sapiens.
Test [7] has as its target Estrogen receptor (Rattus norvegicus) (UniProt P06211+Q62986). The test can be described thus: Relative binding affinity for estrogen receptor. The class given is protein assay.
The test system of test [8] is NCI-H322M. The test can be described thus: Cytotoxic effect on nonsmall cell lung cancer NCI-H322M cells. To be noted: Homo sapiens. The class given is functional.
In test [9] the test system is MOLT-4. Kind of test: Cytotoxic effect on leukemia MOLT-4 cells. The class given is functional. As to conditions: Homo sapiens.
Test [10] concerns HCT-116. Kind of test: Cytotoxic effect on growth inhibition of colon cancer HCT116 cells. The class given is functional. As to conditions: Homo sapiens.
Test [11] concerns MDA-MB-231. Kind of test: Cytotoxic effect on growth inhibition of breast cancer MDA-MB-231/ATCC cells. The class given is functional. As to conditions: Homo sapiens.
The test system of test [12] is MCF7. Kind of test: Cytotoxic effect of growth inhibition of breast cancer MCF-7/ADR-RES cells. The class given is functional. As to conditions: Homo sapiens.
Test [13] concerns U-251. Kind of test: Cytotoxic effect on growth inhibition of CNS cancer U251 cells. To be noted: Homo sapiens. The class given is functional.
Test [14] relates to IGROV-1. Kind of test: Cytotoxic effect on growth inhibition of ovarian cancer IGROVI cells. The class given is functional. To be noted: Homo sapiens.
Test [15] has as its system NCI-H322M. The test can be described thus: Cytotoxic effect on growth inhibition of nonsmall cell lung cancer NCI-H322M cells. The class given is functional. As to conditions: Homo sapiens.
Test [16] concerns MOLT-4. Kind of test: Cytotoxic effect on growth inhibition of leukemia MOLT-4 cells. The class given is functional. To be noted: Homo sapiens.
The test system of test [17] is IGROV-1. The test can be described thus: Cytotoxic effect on ovarian cancer IGROVI cells. As to conditions: Homo sapiens. The class given is functional.

DNA topoisomerase 2-alpha, sequence (P11388 whole entry): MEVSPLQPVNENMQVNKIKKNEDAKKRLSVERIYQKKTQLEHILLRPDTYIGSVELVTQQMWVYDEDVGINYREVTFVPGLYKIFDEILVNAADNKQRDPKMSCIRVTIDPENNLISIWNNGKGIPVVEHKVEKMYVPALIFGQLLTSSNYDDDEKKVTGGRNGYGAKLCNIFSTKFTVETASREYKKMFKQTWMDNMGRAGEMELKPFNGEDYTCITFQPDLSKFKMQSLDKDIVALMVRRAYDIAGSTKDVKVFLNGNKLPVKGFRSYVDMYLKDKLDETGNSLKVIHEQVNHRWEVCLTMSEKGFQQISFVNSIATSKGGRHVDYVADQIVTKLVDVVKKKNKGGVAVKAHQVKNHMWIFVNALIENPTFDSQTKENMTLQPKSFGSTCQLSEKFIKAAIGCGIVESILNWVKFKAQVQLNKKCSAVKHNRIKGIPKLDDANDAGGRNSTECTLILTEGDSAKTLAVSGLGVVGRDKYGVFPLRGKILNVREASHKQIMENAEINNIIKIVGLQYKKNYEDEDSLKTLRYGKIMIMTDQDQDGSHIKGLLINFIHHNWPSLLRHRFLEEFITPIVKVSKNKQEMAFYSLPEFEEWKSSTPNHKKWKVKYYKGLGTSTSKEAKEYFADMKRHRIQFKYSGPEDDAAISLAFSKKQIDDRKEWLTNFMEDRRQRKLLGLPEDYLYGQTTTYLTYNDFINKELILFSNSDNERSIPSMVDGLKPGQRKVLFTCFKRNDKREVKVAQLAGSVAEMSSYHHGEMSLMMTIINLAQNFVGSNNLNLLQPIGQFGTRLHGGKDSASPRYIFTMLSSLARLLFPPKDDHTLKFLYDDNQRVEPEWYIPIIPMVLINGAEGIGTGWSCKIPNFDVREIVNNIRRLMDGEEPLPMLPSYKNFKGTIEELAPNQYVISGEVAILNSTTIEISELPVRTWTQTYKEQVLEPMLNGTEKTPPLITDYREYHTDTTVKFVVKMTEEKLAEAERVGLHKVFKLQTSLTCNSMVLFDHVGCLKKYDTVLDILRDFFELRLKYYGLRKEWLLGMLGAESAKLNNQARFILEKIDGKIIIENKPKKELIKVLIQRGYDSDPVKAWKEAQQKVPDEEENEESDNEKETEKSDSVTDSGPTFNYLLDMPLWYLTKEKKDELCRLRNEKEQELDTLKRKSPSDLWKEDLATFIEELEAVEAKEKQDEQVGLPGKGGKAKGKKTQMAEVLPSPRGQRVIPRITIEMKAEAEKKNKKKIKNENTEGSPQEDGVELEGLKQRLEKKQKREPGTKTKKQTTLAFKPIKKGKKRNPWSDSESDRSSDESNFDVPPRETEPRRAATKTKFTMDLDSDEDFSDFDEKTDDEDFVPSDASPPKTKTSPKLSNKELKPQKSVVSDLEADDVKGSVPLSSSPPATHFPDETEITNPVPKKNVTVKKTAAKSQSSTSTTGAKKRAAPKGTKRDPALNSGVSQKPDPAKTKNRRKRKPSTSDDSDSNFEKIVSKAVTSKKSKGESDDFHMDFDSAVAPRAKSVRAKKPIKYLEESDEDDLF

As a reminder, the IC50 is the point on the concentration scale where inhibition reaches its midpoint. A low value points to greater potency. One may read the GI50 as the concentration giving 50% growth inhibition. A low value points to greater sensitivity of the cells. Consider `Cc1c2c(c(C)c3c1[nH]c1ccccc13)CN(C(=O)NCCCCCCNC(=O)C[C@]1(O)CC[C@H]3[C@@H]4CCc5cc(O)ccc5[C@H]4CC[C@@]31C)C=C2`, for which it took 24.1 µM to reach half-maximal inhibition in [1] (IC50). Also, the GI50 in test [2] is 3.51 µM; in test [3] it was 9.56 µM; in [4] it was 16.6 µM; in [5] it was 7.97 µM; in test [6], 3.39 µM; in test [8], 2.68 µM. Further, the GI50 is 2.9 µM in test [9]; 3.55 µM in [10]; 19.7 µM in test [11]; 9.96 µM in [12]; 7.64 µM in test [13]; 8.53 µM in [14]. Also, the relative binding affinity (RBA) in [7] was determined as 0.132.
Regarding `Cc1c2ccncc2c(C)c2c1[nH]c1ccc(C(=O)NCCCCCCNC(=O)C[C@]3(O)CC[C@H]4[C@@H]5CCc6cc(O)ccc6[C@H]5CC[C@@]43C)cc12`, the IC50 in test [1] was greater than 200 µM. Besides, the GI50 in test [2] was 74 µM; in test [3], greater than 100 µM; in test [4], greater than 100 µM; in test [5], 51.4 µM; in test [10] it was 31.2 µM; in [15], 28 µM. Also, the GI50 in [11] was 34.7 µM; in test [16] it was 38.3 µM; in test [12], greater than 100 µM; in test [13], 55.9 µM; in test [14], greater than 100 µM. For the same compound, the relative binding affinity (RBA) in test [7] came to 0.303.
`C[C@]12CC[C@@H]3c4ccc(O)cc4CC[C@H]3[C@@H]1CC[C@@]2(O)CC(=O)O` displayed a relative binding affinity (RBA) in [7] of 0.039.
Still for that read-out and setting: to `CCOC(=O)C[C@]1(O)CC[C@H]2[C@@H]3CCc4cc(O)ccc4[C@H]3CC[C@@]21C` belongs 3.66; to `C[C@]12CC[C@@H]3c4ccc(O)cc4CC[C@H]3[C@@H]1CC[C@@]2(O)CC(=O)NCCCCCCN`, 0.041.
Consider `Cc1c2ccncc2c(C)c2c1[nH]c1ccccc12` [ELLIPTECINE], for which the GI50 in test [3] came to 0.73 µM; in [5], 0.56 µM; in [6] it was 0.71 µM; in [9] it was 0.38 µM; in test [10] it was 0.29 µM; in test [15], 0.31 µM. The GI50 was determined as 0.74 µM in test [12], 0.93 µM in test [13] and 0.86 µM in test [14].
The compound `Cc1c2cnccc2c(C)c2c1c1ccccc1n2CC(=O)NCCCCCCNC(=O)C[C@]1(O)CC[C@H]2[C@@H]3CCc4cc(O)ccc4[C@H]3CC[C@@]21C` displayed an IC50 in test [1] greater than 200 µM. Besides, the concentration for 50% growth inhibition (GI50) is greater than 100 µM in [17]; 57.1 µM in test [2]; greater than 100 µM in test [3]; 46.8 µM in test [4]; 50.9 µM in test [5]; greater than 100 µM in test [6]. For the same compound, the GI50 in test [9] is 46.3 µM; in test [10], 39.9 µM; in test [15], 71.4 µM; in test [11] it was greater than 100 µM; in test [12], greater than 100 µM; in test [13], 72.4 µM.
For the compound `CC(C)(C)OC(=O)NCCCCCCNC(=O)C[C@]1(O)CC[C@H]2[C@@H]3CCc4cc(O)ccc4[C@H]3CC[C@@]21C`, in test [7], the relative binding affinity (RBA) was found to be 0.056.
